Marks after values point to notes of the source that are not given here.
Tests used:
[1] = Mortality, body weight, spleen and thymus indices in LLC-bearing mice; assay type: in vivo, C57 mice; settings: cisplatin 4 mg/kg ip q3d
Protocol: Healthy LLC cells were inoculated subcutaneously into the left shoulder of 5 healthy male C57 mice. Once tumors reached a volume of 2,000-3,000 mm^3, they were harvested and homogenized to prepare a homogenate suspension. This suspension was then injected subcutaneously into the axilla of 60 healthy male C57 mice to establish a solid tumor model. Once all mouse tumors averaged a volume of about 150 mm^3, mice were randomized into groups based on tumor volume and were administered the respective drugs or drug solvents via oral gavage or intraperitoneal injection for 19 consecutive days. Longest and shortest diameters of tumors were measured every three days to calculate tumor volume, and mouse weights were recorded every three days. At the end of the experiment, tumors, spleens, and thymuses were harvested and weighed to calculate tumor, spleen, and thymus indices.
(§1) Spleen and thymus organ coefficients: After the last dose, spleen, thymus, and tumor weights are measured, and organ coefficients are calculated.
(§2) Immune organ index (mg/g)=(organ mass/body weight)×1000.

[2] = tested on: lymphocyte subtypes CD3^+/CD4^+ and CD3^+/CD8^+; experiment: Blood CD3+/CD4+ and CD3+/CD8+ ratios by flow cytometry in orthotopic H22-bearing mice; assay type: in vivo, C57 mice; settings: radiotherapy 2 Gy/d + cisplatin 4 mg/kg ip q3d, after the last dose, Mean ± SEM
Protocol: CD4^+ and CD8^+ content measurement: After the last dose, lymphocyte subtypes CD3^+/CD4^+ and CD3^+/CD8^+ in the blood were measured using flow cytometry.

[3] = Mortality, body weight and organ coefficients in orthotopic H22-bearing mice; settings: radiotherapy 2 Gy/d + cisplatin 4 mg/kg ip q3d
Description: (§3) Liver cancer (H22) cells, labeled with Luc fluorescent marker at a concentration of 1×10^7 cells/mL, were initially inoculated into the peritoneal cavity of 8 male C57 mice. After the development of ascites, the ascitic fluid was aseptically extracted, washed with HBSS buffer, centrifuged to discard the supernatant, and stained with Trypan Blue, and cells in the ascitic fluid were counted under a microscope. The cell concentration was adjusted to […] with HBSS buffer and inoculated into the right hepatic region of 80 male C57 mice, at a volume of 10 μL per mouse, to prepare the orthotopic tumor-bearing mice. One week later, the liver tumor formation in mice was detected using a small animal in vivo imaging system. […] An additional 10 mice served as the normal control group. Except for the normal control group, all other animals underwent radiotherapy using an animal radiotherapy instrument. The animals were anesthetized, placed in homemade lead clothing, and the tumor tissue was exposed for radiation treatment at an intensity of 2 Gy/day for 5 consecutive days. The normal control group and the model control group were administered pure water by oral gavage. […] After the last dose, blood was collected from the orbital plexus to test blood WBC, RBC, liver and kidney function indicators (ALT, AST, BUN, CRE), and CD3^+/CD4^+, CD3^+/CD8^+ ratios. The spleen, thymus, and tumors were weighed to calculate organ coefficients, and the liver, spleen, and thymus underwent histopathological examination.
Animal survival and general condition: Weight was recorded weekly, along with any deaths among the animals.
Immune organs: The thymus, spleen, tumor, and liver were weighed, and organ coefficients were calculated as follows: organ coefficient (%)=organ weight/fasting body weight×100%.

[4] = Histopathological examination of liver, spleen and thymus in orthotopic H22-bearing mice; assay type: in vivo, C57 mice; settings: radiotherapy 2 Gy/d + cisplatin 4 mg/kg ip q3d
Description: as §3, with “The spleen, thymus, and tumors were weighed to calculate organ coefficients, and the liver, spleen, and thymus underwent histopathological examination.” left out

LLC-bearing mice = experiment: Antitumor effect of GLP-3 combined with chemotherapy on LLC-bearing mice (tumor volume, inhibition rates, tumor index); assay type: in vivo, C57 mice; settings: cisplatin 4 mg/kg ip q3d
Protocol: Healthy LLC cells were inoculated subcutaneously into the left shoulder of 5 healthy male C57 mice. […] This suspension was then injected subcutaneously into the axilla of 60 healthy male C57 mice to establish a solid tumor model. […] Longest and shortest diameters of tumors were measured every three days to calculate tumor volume, and mouse weights were recorded every three days. At the end of the experiment, tumors, spleens, and thymuses were harvested and weighed to calculate tumor, spleen, and thymus indices. […] [table] […] Where TRTV is the relative tumor volume in the experimental group, and CRTV is the relative tumor volume in the model control group. Relative tumor volume (RTV)=Vt/V0, where Vt is the tumor volume on day t of dosing, and V0 is the tumor volume at the time of grouping. Evaluation criteria: […] Where T represents the average tumor weight in the treatment group, and C represents the average tumor weight in the model control group. Evaluation criteria: […] Tumor index (%)=(tumor weight/body weight)×100%.

[5] = Mortality, body weight, spleen and thymus indices in H22-bearing mice; assay type: in vivo, C57 mice; settings: sc H22 mice, cisplatin 3 mg/kg ip q3d
Protocol: A homogenate suspension of H22 hepatoma solid tumors was injected subcutaneously under the axilla of 50 healthy male C57 mice to create a solid tumor model. Once all mouse tumors averaged a volume of about 200 mm^3, mice were randomized into groups based on tumor volume and were administered the respective drugs or drug solvents via oral gavage or intraperitoneal injection for 22 consecutive days. Longest and shortest diameters of tumors were measured every three days to calculate tumor volume, and mouse weights were recorded every three days. At the end of the experiment, tumors, spleens, and thymuses were harvested and weighed to calculate tumor, spleen, and thymus indices.
as §1, §2

[6] = tested on: orthotopic H22-bearing mice; experiment: Tumor by small animal in vivo imaging, GLP-3 combined with radiotherapy, orthotopic H22-bearing mice; design: species or system C57 mice; settings: radiotherapy 2 Gy/d + cisplatin 4 mg/kg ip q3d
Protocol: This study used the proposed clinical dose as a basis for the experiment. The radiotherapy intensity for this study was designed to be 2 Gy per day. [table] Tumor volume measurement: Tumor volume changes were measured weekly using small animal in vivo imaging technology.

H22-bearing mice = experiment: Antitumor effect of GLP-3 combined with chemotherapy on H22-bearing mice (tumor volume, inhibition rates, tumor index); assay type: in vivo, C57 mice; settings: sc H22 mice, cisplatin 3 mg/kg ip q3d
Protocol: Longest and shortest diameters of tumors were measured every three days to calculate tumor volume, and mouse weights were recorded every three days. At the end of the experiment, tumors, spleens, and thymuses were harvested and weighed to calculate tumor, spleen, and thymus indices. […] [table] […] Where TRTV is the relative tumor volume in the experimental group, and CRTV is the relative tumor volume in the model control group. Relative tumor volume (RTV)=Vt/V0, where Vt is the tumor volume on day t of dosing, and V0 is the tumor volume at the time of grouping. Evaluation criteria: […] Where T represents the average tumor weight in the treatment group, and C represents the average tumor weight in the model control group. Evaluation criteria: […] Tumor index (%)=(tumor weight/body weight)×100%.

[7] = after the last dose, Mean ± SEM

N.N.[Cl][Pt][Cl] [Cisplatin]
Mortality rate ([1]; 19 days): 0.0% | Number of deaths ([1]; 19 days): 0 | Survival time ([1]; 19 days): 19 ± 0 days | Weight ([1]; D0): 21.5 ± 1.3 g | Weight ([1]; D3): 20.9 ± 1.3^ g | Weight ([1]; D6): 20.4 ± 1.9^+ g | Weight ([1]; D9): 18.3 ± 2.6^+ g | Weight ([1]; D12): 18.6 ± 2.8^+ g | Weight ([1]; D15): 17.7 ± 2.7^+ g | Weight ([1]; D19): 16.8 ± 2.8^+ g | Spleen index ([1]; after the last dose): 2.84 ± 0.77^+ mg/g | CD3^+/CD4^+ [2]: 23.05 ± 12.70 | CD3^+/CD8^+ [2]: 126.56 ± 67.07 | Mortality rate ([3]; 14 days): 60% | Number of deaths ([3]; 14 days): 6 | Number of surviving animals ([3]; 14 days): 4 | Weight ([3]; W0, Mean ± SEM): 17.1 ± 0.4^++ g | Weight ([3]; W1, Mean ± SEM): 13.6 ± 0.9**^ g | Weight ([3]; W2, Mean ± SEM): 14.6 ± 1.0 g | Liver coefficient [3, 7]: 7.962 ± 0.914 % | Spleen coefficient [3, 7]: 0.424 ± 0.140 % | Thymus coefficient [3, 7]: 0.039 ± 0.017% | Histopathology of liver, spleen and thymus [4]: extensive H22 cell infiltration and necrosis were observed along with increased extramedullary hematopoiesis in the spleen and a decreased number of white pulp cells, with a reduction in thymic lymphocyte counts | Tumor volume (LLC-bearing mice; D0): 137.9 ± 50^ mm^3 | Relative tumor growth inhibition rate (compared to model control group) (LLC-bearing mice; D3): 4.3% | Tumor volume (LLC-bearing mice; D3): 300.1 ± 102.7 mm^3 | Relative tumor growth inhibition rate (compared to model control group) (LLC-bearing mice; D6): 30.0% | Tumor volume (LLC-bearing mice; D6): 486.6 ± 188.9 mm^3 | Relative tumor growth inhibition rate (compared to model control group) (LLC-bearing mice; D9): 54.6^+ % | Tumor volume (LLC-bearing mice; D9): 771.3 ± 256^+ mm^3 | Relative tumor growth inhibition rate (compared to model control group) (LLC-bearing mice; D9, listed as cisplatin): 54.6% | Relative tumor growth inhibition rate (compared to model control group) (LLC-bearing mice; D12): 63.8^+ % | Tumor volume (LLC-bearing mice; D12): 1173.9 ± 488.8^+ mm^3 | Relative tumor growth inhibition rate (compared to model control group) (LLC-bearing mice; D12, listed as cisplatin): 63.8% | Relative tumor growth inhibition rate (compared to model control group) (LLC-bearing mice; D15): 77.3^+ % | Tumor volume (LLC-bearing mice; D15): 1409.5 ± 820.5^+ mm^3 | Relative tumor growth inhibition rate (compared to model control group) (LLC-bearing mice; D15, listed as cisplatin): 77.3% | Relative tumor growth inhibition rate (compared to model control group) (LLC-bearing mice; D19): 79.5^+ % | Tumor volume (LLC-bearing mice; D19): 1771.9 ± 1091.6^+ mm^3 | Relative tumor growth inhibition rate (compared to model control group) (LLC-bearing mice; D19, listed as cisplatin): 79.5% | Tumor index (LLC-bearing mice; after the last dose): 9.09 ± 4.19^+ % | Tumor growth inhibition rate vs. the model control group (LLC-bearing mice; by average tumor weight): 74.4% | Mortality rate ([5]; 22 days): 0.0% | Number of deaths ([5]; 22 days): 0 | Survival time ([5]; 22 days): 22 ± 0 days | Weight ([5]; D0): 18.9 ± 0.8^+ g | Weight ([5]; D3): 19.9 ± 0.7 g | Weight ([5]; D6): 19.5 ± 0.6^+ g | Weight ([5]; D9): 19.6 ± 0.8 g | Weight ([5]; D12): 19.5 ± 0.8^+ g | Weight ([5]; D15): 19.2 ± 0.7^+ g | Weight ([5]; D18): 18.5 ± 0.9^+ g | Spleen index ([5]; after the last dose): 3.4 ± 0.3^+ mg/g | Thymus index ([5]; after the last dose): 0.6 ± 0.1 mg/g | Tumor ([6]; W 0, Mean ± SEM): 766250 ± 515323 | Tumor ([6]; W 1, Mean ± SEM): 5188000 ± 2224171 | Tumor volume (H22-bearing mice; D0): 188.2 ± 48.7 mm^3 | Relative tumor growth inhibition rate (compared to model control group) (H22-bearing mice; D3): 11.7% | Tumor volume (H22-bearing mice; D3): 338.6 ± 69.1 mm^3 | Relative tumor growth inhibition rate (compared to model control group) (H22-bearing mice; D6): 19.5% | Tumor volume (H22-bearing mice; D6): 356.9 ± 77.9 mm^3 | Relative tumor growth inhibition rate (compared to model control group) (H22-bearing mice; D9): 53.1^+ % | Tumor volume (H22-bearing mice; D9): 598.5 ± 219.2^+ mm^3 | Relative tumor growth inhibition rate (compared to model control group) (H22-bearing mice; D9, listed as cisplatin): 53.1% | Relative tumor growth inhibition rate (compared to model control group) (H22-bearing mice; D12): 64.4^+ % | Relative tumor growth inhibition rate (compared to model control group) (H22-bearing mice; D12, listed as cisplatin): 64.4% | Relative tumor growth inhibition rate (compared to model control group) (H22-bearing mice; D15): 73.1^+ % | Tumor volume (H22-bearing mice; D15): 900.4 ± 376.4^+ mm^3 | Relative tumor growth inhibition rate (compared to model control group) (H22-bearing mice; D15, listed as cisplatin): 73.1% | Relative tumor growth inhibition rate (compared to model control group) (H22-bearing mice; D18): 71.6^+ % | Tumor volume (H22-bearing mice; D18): 1098.3 ± 397^+ mm^3 | Relative tumor growth inhibition rate (compared to model control group) (H22-bearing mice; D18, listed as cisplatin): 71.6% | Relative tumor growth inhibition rate (compared to model control group) (H22-bearing mice; D22): 75.0^+ % | Tumor volume (H22-bearing mice; D22): 1526.5 ± 535.7^+ mm^3 | Relative tumor growth inhibition rate (compared to model control group) (H22-bearing mice; D22, listed as cisplatin): 75.0% | Tumor index (H22-bearing mice; after the last dose): 6.6 ± 2.2^+ % | Tumor growth inhibition rate vs. the model control group (H22-bearing mice; by average tumor weight): 75.7%

Reference: patent publication US20250144130A1, “POLYSACCHARIDE COMPOUND WITH A DEFINED MOLECULAR STRUCTURE THAT CAN ELIMINATE THE TOXIC SIDE EFFECTS OF CHEMOTHERAPY DRUGS” (priority 2023, published 2025)
